Experimental data reported in article PMC5727211, “Development of Erasin: a chromone-based STAT3 inhibitor which induces apoptosis in Erlotinib-resistant lung cancer cells” (Scientific Reports, 2017).
“Also recorded” adds a separate entry of the source. Where two headings read alike, the source gives them in different places.

What was measured:
[1] = system: parental HCC-827 cells; assay: Apoptosis assay (Annexin V/7-AAD flow cytometry), parental HCC-827 cells; format: cell-based, human; conditions: 24 h
Experimental: Afterwards, the cell culture supernatant from each well was collected. […] The supernatants were then returned to each well to neutralize the Accutase solution and the cells were centrifuged at 3000 rpm, at 4 °C for 5 min. The cell pellets were washed twice with cold PBS and centrifuged again. […] Cells were resuspended in 1 x binding buffer and incubated with PE Annexin V and 7-AAD at 4 °C for 30 min. Apoptosis was measured using an LSR II flow cytometer (BD Bioscience). Experiments were carried out in at least triplicate.

[2] = system: STAT3 Tyr705 phosphorylation; assay: Western Blot, STAT3 Tyr705 phosphorylation in parental HCC-827 cells; format: cell-based, human; conditions: 24 h
Experimental: (§1) HepG2 cells were plated in 6-well plates (Corning #3516) and allowed to reach approximately 60% confluence. The medium was then replaced with serum-free medium for 24 h. Cells were subsequently pre-treated with compound or DMSO (final DMSO concentration: 0.2%) for 1 h at 37 °C, prior to stimulation for 15 min with 50 ng/mL IFNγ (Pepro Tech, for STAT1 phosphorylation), or 30 min with 50 ng/mL IL-6 (Pepro Tech, for STAT3 phosphorylation). Cells were treated with test compound or DMSO for 1 h (final DMSO concentration 0.2%). K562 cells (1.5 × 10^6 cells per well) were seeded in 6-well plates (Corning #3516) and were treated with test compound or DMSO for 1.5 h (final DMSO concentration 0.2%). […] Afterwards, cells were treated with the test compounds or DMSO (final DMSO concentration: 0.2%) for 24 h. Afterwards, the cells were washed twice with cold phosphate buffered saline (PBS). […]
(§2) Lysates were separated on a polyacrylamide gel under denaturing conditions, and transferred to a nitrocellulose membrane. STAT phosphorylation was assessed using rabbit monoclonal antibodies against the phosphorylated forms only of STAT1, STAT3 or STAT5 (Cell Signaling, 1:1000) with secondary antibody swine anti-rabbit HRP from Dako, 1:3000), followed by reblotting with rabbit monoclonal antibodies against total STAT1, STAT3 or STAT5 (Cell Signaling), and subsequently β-actin loading control. […]

[3] = system: MDA-MB-231 cells; assay: Apoptosis assay (Annexin V/7-AAD flow cytometry), MDA-MB-231 cells; format: cell-based, human; conditions: 24 h
Experimental: (§3) MDA-MB-453 cells (3 × 10^5 cells per well), MDA-MB-231 cells (2 × 10^5 cells per well), parental HCC-827 or Erlotinib-resistant HCC-827 cells (both 2.5 × 10^5 cells per well) were seeded in 24-well tissue culture plates (Corning #3524) and treated with test compound or DMSO (final DMSO concentration: 0.2%) for 24 h. Afterwards, the cell culture supernatant from each well was collected. Cells were washed twice with warm PBS and incubated with Accutase (BD Bioscience #561527) at 37 °C for 10 min. The supernatants were then returned to each well to neutralize the Accutase solution and the cells were centrifuged at 3000 rpm, at 4 °C for 5 min. The cell pellets were washed twice with cold PBS and centrifuged again. PE Annexin V Apoptosis Detection Kit I (BD Bioscience, 559763) was used for cell staining. Cells were resuspended in 1 x binding buffer and incubated with PE Annexin V and 7-AAD at 4 °C for 30 min. Apoptosis was measured using an LSR II flow cytometer (BD Bioscience). Experiments were carried out in at least triplicate.

[4] = system: MDA-MB-453 cells; assay: Apoptosis assay (Annexin V/7-AAD flow cytometry), MDA-MB-453 cells; format: cell-based, human; conditions: 24 h
Experimental: as §3

[5] = system: STAT3 Tyr705 phosphorylation; assay: Western Blot, STAT3 Tyr705 phosphorylation in Erlotinib-resistant HCC-827 cells; format: cell-based, human; conditions: 24 h
Experimental: as §1, §2

[6] = biological target: STAT3 SH2 domain (Homo sapiens, UniProt P40763); assay: FP-based competitive binding assay, STAT3 SH2 domain
Experimental: The STAT family display a high degree of homology. […] Vilsmeyer-Haack formylation of 2-hydroxy acetophenones led to 3-formyl chromones, which were subsequently converted to the acyl hydrazones by reaction with hydrazides (Fig. 1). The target molecules were tested for their abilities to inhibit binding of fluorophore-labeled peptides to the SH2 domains of STAT1[24], STAT3[25], and STAT5b[26] in assays based on fluorescence polarization (FP). The more distantly related SH2 domain of the tyrosine kinase Lck served as additional specificity control[27],[28].
Assays were performed essentially as described. In brief, protein was incubated with the test compounds for 1 h at room temperature at the following protein concentrations: STAT1: 400 nM, STAT3: 210 nM, STAT5b: 300 nM, Lck SH2: 35 nM. Subsequently, the corresponding fluorophore-labeled peptide was added: STAT1: (5-carboxyfluorescein)-GpYDKPHVL-OH, derived from the interferon-γ receptor[24]; STAT3: (5-carboxyfluorescein)-GpYLPQTV-NH2, derived from the gp130 subunit of the IL-6 receptor[25]; STAT5b: (5-carboxyfluorescein)-GpYLVLDKW-OH, derived from the erythropoietin receptor[26]; Lck SH2: (5-carboxyfluorescein)-GpYEEIP-OH, derived from the middle-T antigen. After a further hour of incubation, fluorescence polarization was measured in a plate reader (Tecan Infinite F500). Apparent IC50 data shown in Tables 1, 2, and S1 and the inhibition curves shown in Fig. 2a correspond to this time point. The majority of the pipetting work was carried out using a Biomek FXp workstation (Beckman-Coulter). […]

Sequence of STAT3 SH2 domain (P40763 whole entry, the tested form may be a part): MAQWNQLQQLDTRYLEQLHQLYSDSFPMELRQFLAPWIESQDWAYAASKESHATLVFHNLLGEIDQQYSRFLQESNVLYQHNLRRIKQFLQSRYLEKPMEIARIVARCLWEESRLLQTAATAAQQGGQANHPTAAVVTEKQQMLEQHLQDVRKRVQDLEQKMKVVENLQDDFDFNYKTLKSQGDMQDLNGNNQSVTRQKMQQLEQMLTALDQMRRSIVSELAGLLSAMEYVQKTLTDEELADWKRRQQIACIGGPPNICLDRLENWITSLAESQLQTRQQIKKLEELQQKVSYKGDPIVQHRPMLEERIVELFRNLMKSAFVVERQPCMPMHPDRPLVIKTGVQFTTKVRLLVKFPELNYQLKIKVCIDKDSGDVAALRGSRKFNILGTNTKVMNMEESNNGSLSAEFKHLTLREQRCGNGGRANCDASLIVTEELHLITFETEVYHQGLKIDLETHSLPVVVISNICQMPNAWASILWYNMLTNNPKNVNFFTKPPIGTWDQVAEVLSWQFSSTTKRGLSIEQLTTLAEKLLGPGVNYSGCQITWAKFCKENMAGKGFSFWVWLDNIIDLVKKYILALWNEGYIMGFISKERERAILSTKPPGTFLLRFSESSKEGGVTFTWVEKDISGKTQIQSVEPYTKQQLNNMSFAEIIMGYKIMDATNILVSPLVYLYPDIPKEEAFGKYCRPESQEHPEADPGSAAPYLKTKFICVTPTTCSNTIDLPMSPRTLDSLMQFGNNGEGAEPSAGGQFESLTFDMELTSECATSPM

Row | IC50 ([6]; 1 h with protein, then 1 h with peptide, mean ± s.d., three experiments, read-out: STAT3 app. IC50) | IC50 ([6]; after 9 h, read-out: apparent IC50 against wild-type STAT3 after 9 h) | inhibition at 80 µM ([6]; at 80 µM, mean ± s.d., three experiments) | Compound | increase in rate of apoptosis relative to DMSO control [1] | STAT3 Tyr705 phosphorylation [2] | increase in rate of apoptosis relative to DMSO control [3] | increase in rate of apoptosis relative to DMSO control [4] | STAT3 Tyr705 phosphorylation [5] | effect of omission of DTT from assay buffer on inhibitory activity against STAT3 ([6]; 2 h of incubation, without DTT)
1 | 9.7 ± 1.8 µM | 2.8 µM |  | CC(C)(C)c1ccc2occ(/C=N/NC(=O)c3cccnc3)c(=O)c2c1 [Compound 8] | up to four-fold increase | dose-dependent inhibitory effect | up to three-fold increase | did not show an increase | dose-dependent inhibitory effect | does not significantly increase the inhibitory activity
2 |  |  | 45 ± 5% | CCC(C)(C)c1ccc2occ(/C=N/NC(=O)c3cccnc3)c(=O)c2c1 [Compound 9] | did not significantly increase apoptosis; also recorded: did not increase the apoptotic rate | did not reduce STAT3 Tyr705 phosphorylation | did not significantly increase apoptosis | did not significantly increase apoptosis | did not reduce STAT3 Tyr705 phosphorylation | 
